Test results published in patent publication US11890287B2, “Therapeutic compounds and compositions for treating social disorders and substance use disorders” (Kinoxis Therapeutics Pty Ltd, priority 2015, dated 2024).
Each block holds one compound with its values, some of them ahead of it.

Assays:
male Sprague Dawley rats = assay: Methamphetamine-primed reinstatement; assay type: in vivo, rat; details: C25 10 mg/kg IP or SR49059 1 mg/kg IP before SOC-1 10 mg/kg
[1] = system: SH-SY5Y neuroblastoma cells; assay: Cell viability (Cell Titer Blue); assay type: cell-based; details: 48 hours; for Viability: mean ± SD
Procedure: (§1) No apparent cytotoxicity of SOC-1 has been seen in vitro or toxicity in vivo. In a test, SH-SY5Y neuroblastoma cells and HEK-293 cells (4×10^4 cells per well) were exposed to OT or SOC-1 (0.01-10 μM) for 48 hours, with daily media changes. Viability of cells was assessed after a 4 hour exposure to Cell Titer Blue (Promega).

HEK-293 cells = assay: Cell viability (Cell Titer Blue); assay type: cell-based; details: 48 hours; for Viability: mean ± SD
Procedure: as §1

[2] = system: Fos-positive cells in brain regions of interest; assay: Fos immunohistochemistry in rat brain; assay type: in vivo, male Wistar rats; details: OT 1 mg/kg, SOC-1 5 mg/kg
Procedure: Fos immunohistochemistry was used to identify the neural “signature” of SOC-1 (5 mg/kg) in rat brain relative to injections of peripheral oxytocin (OT) (1 mg/kg). SOC-1 produces a similar overall pattern of neural activation and behavioural effects as OT. However, the effects are much larger and additional areas are activated by SOC-1 that are implicated in the regulation of social behaviour (e.g. lateral septum, medial preoptic area and supraoptic nucleus). SOC-1 produces powerful activation of OT-containing neurons in both the supraoptic (FIG. 6: (A)=vehicle; (B)=oxytocin; and (C)=SOC-1) and paraventricular nucleus of the hypothalamus.

Wistar rats = assay: Biotelemetry of body temperature and heart rate; assay type: in vivo, rat; details: SR49059 10 mg/kg before SOC-1
Procedure: FIG. 7—The monitored body temperatures of Wistar rats administered vehicle, SOC-1 (5 mg/kg), or SOC-1 and the V1A receptor antagonist SR49059 (10 mg/kg).
FIG. 8—The monitored heart rates for Wistar rats administered vehicle, SOC-1 (5 mg/kg), or SOC-1 and the V1A receptor antagonist SR49059 (10 mg/kg).
However, the rats were not ataxic or comatose, they were simply in a relaxed quiescent state. […] Effects on body temperature and other behaviours are not blocked by pre-treatment with the vasopressin V1A receptor antagonist SR49059 (10 mg/kg). […] The data in these two studies was gathered with DataSciences International biotelemetry system.

SMILES: COCc1nnc(N2CC(Oc3ccc(F)cc3Cl)C2)n1-c1ccc(OC)nc1 [C25, 5-(3-(3-(2-chloro-4-fluorophenoxy)azetidin-1-yl)-5-(methoxymethyl)-4H-1,2,4-triazol-4-yl)-2-methoxypyridine, reference compound]
block of the attenuating effect of SOC-1 on methamphetamine-primed reinstatement (male Sprague Dawley rats): failed to block the attenuating effect of SOC-1

melting point: 181 to 183 °C
SMILES: Cn1ncc2c1Nc1ccc(F)cc1NC2 [FB-SOC-2, 7-Fluoro-1-methyl-1,4,5,10-tetrahydrobenzo[b]pyrazolo[3,4-e][1,4]diazapine]

melting point: 172 to 173 °C
SMILES: Cc1ccc2c(c1)NCc1cnn(C)c1N2 [FB-SOC-4, 1,7-Dimethyl-1,4,5,10-tetrahydrobenzo[b]pyrazolo[3,4-e][1,4]diazapine]

melting point: 137 to 139 °C
SMILES: Cc1cccc2c1Nc1c(cnn1C)CN2 [FB-SOC-5, 1,9-Dimethyl-1,4,5,10-tetrahydrobenzo[b]pyrazolo[3,4-e][1,4]diazepine]

melting point: 126 to 128 °C
SMILES: COc1ccc2c(c1)NCc1cnn(C)c1N2 [FB-SOC-6, 7-Methoxy-1-methyl-1,4,5,10-tetrahydrobenzo[b]pyrazolo[3,4-e][1,4]diazapine]

SMILES: CC[C@H](C)[C@@H]1NC(=O)[C@H](Cc2ccc(O)cc2)NC(=O)[C@@H](N)CSSC[C@@H](C(=O)N2CCC[C@H]2C(=O)N[C@@H](CC(C)C)C(=O)NCC(N)=O)NC(=O)[C@H](CC(N)=O)NC(=O)[C@H](CCC(N)=O)NC1=O [Oxytocin, oxytocin, reference compound]
Viability ([1]; 0.01 μM): 100.4 ± 2.4 percentage of vehicle viability | Viability ([1]; 0.1 μM): 101.3 ± 1.0 percentage of vehicle viability | Viability ([1]; 1 μM): 100.2 ± 1.1 percentage of vehicle viability | Viability ([1]; 10 μM): 100.6 ± 2.9 percentage of vehicle viability | differences in viability ([1]; 0.01-10 μM): No significant differences in viability | Viability (HEK-293 cells; 0.01 μM): 97.8 ± 6.6 percentage of vehicle viability | Viability (HEK-293 cells; 0.1 μM): 100.0 ± 3.2 percentage of vehicle viability | Viability (HEK-293 cells; 1 μM): 101.5 ± 3.7 percentage of vehicle viability | Viability (HEK-293 cells; 10 μM): 104.3 ± 2.6 percentage of vehicle viability | differences in viability (HEK-293 cells; 0.01-10 μM): No significant differences in viability | Mean number of Fos-positive cells, BNST (dorsolateral division) [2]: 11.33 | Mean number of Fos-positive cells, BNST (middle anterior part)) [2]: 5.83 | Mean number of Fos-positive cells, Central nucleus of the amygdala [2]: 25.14 | Mean number of Fos-positive cells, Lateral Parabrachial nucleus [2]: 19.14 | Mean number of Fos-positive cells, Lateral septum (ventral) [2]: 9.17 | Mean number of Fos-positive cells, Locus Ceruleus [2]: 4.14 | Mean number of Fos-positive cells, Medial preoptic area [2]: 3.8 | Mean number of Fos-positive cells, Median preoptic nucleus [2]: 7.17 | Mean number of Fos-positive cells, Nucleus of Solitary Tract [2]: 31.68 | Mean number of Fos-positive cells, PAG (ventrolateral) [2]: 6.57 | Mean number of Fos-positive cells, Paraventircular nucleus [2]: 55.57 | Mean number of Fos-positive cells, Supraoptic nucleus [2]: 4.57 | Mean percent of OT cells that were Fos positive, Paraventircular nucleus [2]: 22.07% | Mean percent of OT cells that were Fos positive, Supraoptic nucleus [2]: 13.5%

SMILES: COc1ccc(S(=O)(=O)N2c3ccc(Cl)cc3[C@](O)(c3ccccc3Cl)[C@@H]2C(=O)N2CCC[C@H]2C(N)=O)cc1OC [SR49059, reference compound]
block of the attenuating effect of SOC-1 on methamphetamine-primed reinstatement (male Sprague Dawley rats): failed to block the attenuating effect of SOC-1 | block of SOC-1 effects on body temperature and other behaviours by pre-treatment (Wistar rats): not blocked
